# Data taken from PubChem BioAssay AID2060901 (Molecular Pharmacology Branch, DTP, NCI, 2025).
# System: 422866-222-R5-J1-PDC complex spheroids viability
# Test: Anticancer human tumor 422866-222-R5-J1-PDC patient-derived pancreatic adenocarcinoma cell line growth inhibition [RAS]
# Conditions: for IC50: curve of first compound; for viability, T/C: stronger effect = lower value
# Summary of the method: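 Tumour cells grown as complex spheroids with HUVEC endothelial cells and mesenchymal stem cells, treated with RAS pathway inhibitor combinations. Each agent spans half-log steps from near clinical Cmax, or 10 microM where Cmax is unknown.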
# [1] = second compound 0.000949 µM, first compound 0.0316 µM
# [2] = second compound 0.000949 µM, first compound 0.1 µM
# [3] = second compound 0.000949 µM, first compound 0.316 µM
# [4] = second compound 0.000949 µM, first compound 1 µM
# [5] = second compound 0.000949 µM, first compound 3.16 µM
# [6] = second compound 0.000949 µM, first compound 10 µM
# [7] = second compound 0.003 µM, first compound 0.0316 µM
# [8] = second compound 0.003 µM, first compound 0.1 µM
# [9] = second compound 0.003 µM, first compound 0.316 µM
# [10] = second compound 0.003 µM, first compound 1 µM
# [11] = second compound 0.003 µM, first compound 3.16 µM
# [12] = second compound 0.003 µM, first compound 10 µM
# [13] = second compound 0.00949 µM, first compound 0.0316 µM
# [14] = second compound 0.00949 µM, first compound 0.1 µM
# [15] = second compound 0.00949 µM, first compound 0.316 µM
# [16] = second compound 0.00949 µM, first compound 1 µM
# [17] = second compound 0.00949 µM, first compound 3.16 µM
# [18] = second compound 0.00949 µM, first compound 10 µM
# [19] = second compound 0.03 µM, first compound 0.0316 µM
# [20] = second compound 0.03 µM, first compound 0.1 µM
# [21] = second compound 0.03 µM, first compound 0.316 µM
# [22] = second compound 0.03 µM, first compound 1 µM
# [23] = second compound 0.03 µM, first compound 3.16 µM
# [24] = second compound 0.03 µM, first compound 10 µM
# [25] = second compound 0.0949 µM, first compound 0.0316 µM
# [26] = second compound 0.0949 µM, first compound 0.1 µM
# [27] = second compound 0.0949 µM, first compound 0.316 µM
# [28] = second compound 0.0949 µM, first compound 1 µM
# [29] = second compound 0.0949 µM, first compound 3.16 µM
# [30] = second compound 0.0949 µM, first compound 10 µM
# [31] = second compound 0.3 µM, first compound 0.0316 µM
# [32] = second compound 0.3 µM, first compound 0.1 µM
# [33] = second compound 0.3 µM, first compound 0.316 µM
# [34] = second compound 0.3 µM, first compound 1 µM
# [35] = second compound 0.3 µM, first compound 3.16 µM
# [36] = second compound 0.3 µM, first compound 10 µM
# 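Also: spheroids exposed to compounds for 7 days.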
# 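For viability, T/C in this document: 100% = DMSO vehicle control viability.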
smiles,measurement,setting,value
CC1(O)CCCC1n1c(=O)c(C(F)F)cc2cnc(NC3CCN(S(C)(=O)=O)CC3)nc21 (centres undefined) + CCn1c(-c2cccnc2C(C)OC)c2c3cc(ccc31)N1CCOC(CC(NC(=O)C(C(C)C)N(C)C(=O)C3(F)CCN(C(=O)C#CC(C)(C)N(C)C)CC3)C(=O)N3CCCC(N3)C(=O)OCC(C)(C)C2)C1,IC50,second compound 0.000949 µM,< 31.6 nM
same,IC50,second compound 0.003 µM,< 31.6 nM
same,IC50,second compound 0.00949 µM,< 31.6 nM
same,IC50,second compound 0.03 µM,< 31.6 nM
same,IC50,second compound 0.0949 µM,< 31.6 nM
same,IC50,second compound 0.3 µM,< 31.6 nM
same,"viability, T/C",[1],28.6%
same,"viability, T/C",[2],30.5%
same,"viability, T/C",[3],29.6%
same,"viability, T/C",[4],31.9%
same,"viability, T/C",[5],40.8%
same,"viability, T/C",[6],38.2%
same,"viability, T/C",[7],24.8%
same,"viability, T/C",[8],34.6%
same,"viability, T/C",[9],24.7%
same,"viability, T/C",[10],27.1%
same,"viability, T/C",[11],29.8%
same,"viability, T/C",[12],38.2%
same,"viability, T/C",[13],25.3%
same,"viability, T/C",[14],24.8%
same,"viability, T/C",[15],25.2%
same,"viability, T/C",[16],26.8%
same,"viability, T/C",[17],34.3%
same,"viability, T/C",[18],45.2%
same,"viability, T/C",[19],22.9%
same,"viability, T/C",[20],20.5%
same,"viability, T/C",[21],23.5%
same,"viability, T/C",[22],23%
same,"viability, T/C",[23],29.7%
same,"viability, T/C",[24],45.4%
same,"viability, T/C",[25],21.1%
same,"viability, T/C",[26],20.5%
same,"viability, T/C",[27],22.4%
same,"viability, T/C",[28],22%
same,"viability, T/C",[29],29.9%
same,"viability, T/C",[30],43.5%
same,"viability, T/C",[31],15.5%
same,"viability, T/C",[32],19.8%
same,"viability, T/C",[33],19%
same,"viability, T/C",[34],20.5%
same,"viability, T/C",[35],24.9%
same,"viability, T/C",[36],47.3%
CCC(CC)c1cc(NC2CCC(N)C2)n2nccc2n1 (centres undefined) + CCn1c(-c2cccnc2C(C)OC)c2c3cc(ccc31)N1CCOC(CC(NC(=O)C(C(C)C)N(C)C(=O)C3(F)CCN(C(=O)C#CC(C)(C)N(C)C)CC3)C(=O)N3CCCC(N3)C(=O)OCC(C)(C)C2)C1,IC50,second compound 0.000949 µM,< 31.6 nM
same,IC50,second compound 0.003 µM,< 31.6 nM
same,IC50,second compound 0.00949 µM,< 31.6 nM
same,IC50,second compound 0.03 µM,< 31.6 nM
same,IC50,second compound 0.0949 µM,< 31.6 nM
same,IC50,second compound 0.3 µM,< 31.6 nM
same,"viability, T/C",[1],28.4%
same,"viability, T/C",[2],27.2%
same,"viability, T/C",[3],29.5%
same,"viability, T/C",[4],32.3%
same,"viability, T/C",[5],13.3%
same,"viability, T/C",[6],46.4%
same,"viability, T/C",[7],27.7%
same,"viability, T/C",[8],22.5%
same,"viability, T/C",[9],28.1%
same,"viability, T/C",[10],28.2%
same,"viability, T/C",[11],12.1%
same,"viability, T/C",[12],44.5%
same,"viability, T/C",[13],23.8%
same,"viability, T/C",[14],24.4%
same,"viability, T/C",[15],23.8%
same,"viability, T/C",[16],29.6%
same,"viability, T/C",[17],14.5%
same,"viability, T/C",[18],43.7%
same,"viability, T/C",[19],21.2%
same,"viability, T/C",[20],22.1%
same,"viability, T/C",[21],22.8%
same,"viability, T/C",[22],25.4%
same,"viability, T/C",[23],12%
same,"viability, T/C",[24],42%
same,"viability, T/C",[25],20.7%
same,"viability, T/C",[26],15.8%
same,"viability, T/C",[27],22.4%
same,"viability, T/C",[28],24.5%
same,"viability, T/C",[29],11.7%
same,"viability, T/C",[30],45.5%
same,"viability, T/C",[31],15.6%
same,"viability, T/C",[32],20.1%
same,"viability, T/C",[33],20.7%
same,"viability, T/C",[34],24.1%
same,"viability, T/C",[35],12.5%
same,"viability, T/C",[36],48.7%
